Results on one compound are retold here after PMC11645267, “Novel pharmacologic inhibition of lysine-specific demethylase 1 as a potential therapeutic for glioblastoma” (Cancer Gene Therapy, 2024).

In one data set the test system is KINGS1. The data set is described as follows: Western blot of global histone modifications. Format: cell-based. As to conditions: KINGS1, 5 μM, 96 h. As to the method: The effects of S2172 on global histone modifications in GSCs were examined using western blot analysis. GSC cells were treated with 5 μM of S2172 since […] of the cells are still viable at this concentration (Fig. 2, Supplementary Fig. S1E). […] Treatment of GSCs with S2172 increased the overall levels of H3K4me2 as well as H3K9me2. However, these changes were not statistically significant (Fig. 2A, B). […]
instructions. For GSC cells, the CellTiter-Glo 3D Viability Assay (Promega, Madison, WI, USA) was used to measure the living cells. All proliferation experiments were repeated […]
The density of bands was quantified using ImageJ software (https://imagej.nih.gov/ij/). […]
When mice were scanned with MRI, mice were anesthetized with isoflurane (3% in air) and placed in MRS 3017 Benchtop MRI Systems (MR Solutions, Guildford, UK). Using MRI images, tumor volumes were obtained by compiling tumor areas from all slices that contained tumors and calculated by ImageJ software (https://imagej.nih.gov/ij/) {Towner, […]
B. Western blot analysis of LSD1,MYC, Nestin, SOX2,and ACTB in same cells as shown in panel A. ACTB was used as a loading control. […] Quantification of signal intensities of the Western blot (right panel). […] Right panel: Quantification of band signal intensities from the Western blot. […]

Data set [1] can be described thus: Pharmacokinetic analysis, plasma and brain levels. Format: in vivo. As to conditions: male, Crl:CD1 (ICR), mouse, ip, ICR mice, n = 3. Here is the method: Male Crl:CD1 (ICR) mice from […], Japan (8 weeks old, n = 3) received a single intraperitoneal injection of S2172 at 30 mg/kg in 5 mL/kg of 15% DMSO/17.5% Cremophor EL/8.75% Ethanol/8.75% HCO-40/50% PBS. Serial blood sampling was conducted from the jugular vein at 0.25, 0.5, 1, 2, 4, and 6 hr time points. At 0.5 h after injection, mice were euthanized, underwent hemoperfusion, and their brain tissue was harvested, homogenized and diluted 4-fold with water. Blood and brain homogenate samples were treated with acetonitrile and centrifuged. The supernatant solution was used for drug level measurement by LC/MS/MS. Pharmacokinetic parameters were calculated using Moment method analysis.

For a further data set, the system named is GSC1228. The data set is described as follows: Cell proliferation assay (CellTiter-Glo 3D). It counts as cell-based. As to conditions: GSC1228, 96 h; read-out: Growth inhibitory IC50 (GI50). As to the method: (§1) Supplementary materials and methods […]
(§2) Cell lines and culture conditions […]
(§3) 2013 #1009}{Katsushima, 2016 #1156}. GSC cells were cultured in Neurobasal Medium (Life Technologies, Carlsbad, CA, USA) containing N2 and B27 supplements (Life Technologies) along with human recombinant basic fibroblast growth factor and epidermal growth factor (20 ng/ml each; R&D Systems, Minneapolis, MN, USA). Cells were cultured at 37°C in a humidified incubator with 5% CO2.
(§4) For the cell proliferation assay, cells at a density of 1 × 10^5 cells per well were seeded before treatment with LSD1 inhibitors. Cell proliferation was measured after 4 days using a Cell Counting Kit 8 (Dojindo, Kumamoto, Japan) according to the manufacturer ’s […]
(§5) instructions. For GSC cells, the CellTiter-Glo 3D Viability Assay (Promega, Madison, WI, USA) was used to measure the living cells. […]

Another data set relates to GSC222. The data set is described as follows: Cell proliferation assay (CellTiter-Glo 3D). As to conditions: GSC222, 96 h; read-out: Growth inhibitory IC50 (GI50). Format: cell-based. Here is the method:
as §1, §2, §3, §4, §5

Another data set relates to GSC316. The data set is described as follows: Cell proliferation assay (CellTiter-Glo 3D). Format: cell-based. As to conditions: GSC316, 96 h; read-out: Growth inhibitory IC50 (GI50). As to the method:
as §1, §2, §3, §4, §5

Setting [2] is: plasma, single intraperitoneal injection 30 mg/kg.

For orientation: Cmax means the peak of the concentration-time curve. As a reminder, the Tmax is the time at which the peak concentration occurs. Broadly, the half-life is the time in which the quantity being followed falls by half. One may read the IC50 as the point on the concentration scale where inhibition reaches its midpoint.

Like-named read-outs stand apart in the source and are kept apart here.

With `NC1CCC(NC2CC2c2cc(F)cc(F)c2OCc2ccccc2)CC1` (centres unmarked) [S2172], in the data set on KINGS1, the “levels of H3K4me1, H3K4me2, H3K4me3, and H3K9me2” value is “slight increase”. The concentration at 0.5 hr in data set [1] (brain, single intraperitoneal injection 30 mg/kg, read-out: Brain concentration at 0.5 hr) was 1520 ± 140 nM; in data set [1] (plasma, single intraperitoneal injection 30 mg/kg, read-out: Plasma concentration at 0.5 hr) it was 750 ± 90 nM. Besides, the Kp at 0.5 h in data set [1] (brain/plasma, 0.5 hr after single intraperitoneal injection 30 mg/kg, read-out: Brain/plasma ratio) was found to be 2.06 ± 0.39. Moreover, the Cmax in data set [1] (setting [2]) turned out to be 1200 ± 120 nM. Moreover, the Tmax in data set [1] (setting [2]) came to 0.25 h. The half-life in data set [1] (setting [2]) was 4.98 ± 1.64 h. For the same compound, in data set [1] (plasma, single intraperitoneal injection 30 mg/kg, read-out: AUC0–6 h), the AUC(0-t) was determined as 1.11 ± 0.08 µM·h. Besides, the IC50 turned out to be 12.5 µM in the data set with GSC1228, 17 µM in the data set on GSC222 and 12 µM in the data set on GSC316.
